Experiments:
A. baumannii SAN-94040 = assay: Mouse model of A. baumannii pneumonia, Study 1: survival; assay type: in vivo, Acinetobacter baumannii
Description: The bacterial inoculum was prepared in order to obtain a suspension containing 10^8 CFU/mL of Acinetobacter baumannii in saline.
Experimentations were performed with six-week old female C3H/HeN mice (18-20 g, Breeding Centre JANVIER (Ile saint Genest Mayenne 53)) because of their particular susceptibility to Acinetobacter baumannii and the reproducibility of the results (inbreeding in the breed). Each mouse was individually marked and housed in cages containing five animals/cage under ventilated and controlled (temperature and humidity) atmosphere.
The mice were rendered transiently neutropenic by 2 intra-peritoneal (IP) injections of 150 μL of cyclophosphamide (Endoxan® 150 mg/kg) 4 (D-4) and 3 (D-3) days before the Acinetobacter baumannii inoculation (Day 0). This transient immunosuppression was sufficient to facilitate the development of the A. baumannii pneumonia while allowing the recovery of the neutrophil influx 2 (Day 2) days after inoculation in order to avoid or limit a systemic bacterial dissemination.
Mice were anesthetized by a mixture of oxygen and isoflurane. The bacterial inoculation was performed on Day 0 by intra-tracheal installation using an endotracheal catheter (50 μl of the suspension, thus 5.106 CFU). The positioning of the catheter in the trachea (instead of in the oesophagus) was checked by a “ring test”. The bacterial count in lungs was checked for all study groups by sacrificing one mouse immediately after inoculation.
Survival observations were assessed twice daily, up to 4 days post infection. The survival rates were compared with the Chi-square test or the Fisher exact test as appropriate. The survival curves were compared by the Kaplan-Meier method.
The aim of this experiment was to assess the […], with compound (I) via intra-peritoneal route at 200 mg/kg 3 times daily (every 8 hours) for 1 day alone and in combination with meropenem at 50 mg/kg 3 times daily (every 8 hours) for 1 day or with amikacin at 18 mg/kg 3 times daily (every 8 hours) for 1 day.

A. baumannii isolates [1] = assay: Time kill study (Example 4); assay type: cell-based, Acinetobacter baumannii; settings: for MIC: Acinetobacter baumannii, read-out: MIC; for Time to kill 99.9%: alone
Description: A total of 12 isolates were tested (three per sub-group either susceptible, meropenem-resistant, amikacin-resistant or colistin-resistant). Two combinations were tested per isolate. Time-kill kinetics were performed by testing compound (I) and an additional antibacterial agent (amikacin, colistin and meropenem) individually at 1× and 4× the corresponding MIC of each antibacterial agent. […] Samples were taken at 0, 2, 4, 8 and 24 hours in order to determine colony forming units (CFU/mL).
Time-kill studies were carried out as described in General Procedures using combinations of compound (I) with amikacin, meropenem and colistin, respectively.

A. baumannii isolates [2] = assay: Checkerboard testing (compound (I)/antibacterial agent interaction, FIC index); assay type: cell-based, Acinetobacter baumannii; settings: Acinetobacter baumannii
Description: Checkerboard interaction studies were performed using 5 isolates from each of the sub-groups and time kill studies were performed using 3 isolates from each sub-group.
Checkerboards (20 isolates, 5 per sub-group) were prepared so as to contain multiple concentrations of compound (I) with different additional antibacterial agents (amikacin, gentamicin, colistin, meropenem and tobramycin) as follows:
Serial two-fold dilutions of the antimicrobial agents alone or in combination in wells of 96 well microtiter plates were inoculated with the appropriate inoculum so that each well contained approximately 4-5×10^4 CFU/ml. Plates were incubated at 35° C. for 16-20 hours. Combination concentrations were tested between 0.25×MIC and 2×MIC. Growth and sterility controls were also included in each plate.
Synergy, indifference and antagonism were calculated based upon the use of the fractional inhibitory concentration (FIC) indices as described by Pillai, Moellering & Eliopoulos (2005) whereby:
Synergism=FIC index of ≦0.5 Indifference=FIC index >1 but ≦4 Additivity >0.5 to 1 Antagonism=FIC index of >4
Checkerboard studies were carried out as described in General Procedures using twenty different A. baumannii isolates with 5 per sub-group of: susceptible, amikacin-resistant, colistin-resistant and meropenem-resistant.

[3] = Study 1, 24 h after infection, doses as E210
[4] = Study 1, 48 h after infection, doses as E210

NCC[C@H](O)C(=O)N[C@@H]1C[C@H](N)[C@@H](O[C@H]2O[C@H](CN)[C@@H](O)[C@H](O)[C@H]2O)[C@H](O)[C@H]1O[C@H]1O[C@H](CO)[C@@H](O)[C@H](N)[C@H]1O [amikacin]
survivors (%) (A. baumannii SAN-94040; Study 1, 0 h after infection, doses as E210): 100%
No. of survivors (A. baumannii SAN-94040; [3]): 12
survivors (%) (A. baumannii SAN-94040; [3]): 86%
No. of survivors (A. baumannii SAN-94040; [4]): 1
survivors (%) (A. baumannii SAN-94040; [4]): 17%
No. of survivors (A. baumannii SAN-94040; Study 1, 72 h after infection, doses as E210): 0
No. of survivors (A. baumannii SAN-94040; Study 1, 96 h after infection, doses as E210): 0
No. of survivors (A. baumannii SAN-94040; Study 1, C3H/HeN mice, 0 h after SAN-94040 infection, compound (I) 200 mg/kg, amikacin 18 mg/kg, meropenem 50 mg/kg q 8 h I.P.): 14
MIC (A. baumannii isolates [1]; isolate MPM-R-1): 4 µg/mL
MIC (A. baumannii isolates [1]; isolate MPM-R-2): 8 µg/mL
MIC (A. baumannii isolates [1]; isolate MPM-R-3): 4 µg/mL
MIC (A. baumannii isolates [1]; isolate Sus-1): 2 µg/mL
MIC (A. baumannii isolates [1]; isolate Sus-2): 4 µg/mL
MIC (A. baumannii isolates [1]; isolate Sus-3): 4 µg/mL
Time to kill 99.9% (A. baumannii isolates [1]; MPM-R-1, 1xMIC): 1.4 h
Time to kill 99.9% (A. baumannii isolates [1]; MPM-R-1, 4xMIC): 1.2 h
Time to kill 99.9% (A. baumannii isolates [1]; MPM-R-2, 1xMIC): 1.3 h
Time to kill 99.9% (A. baumannii isolates [1]; MPM-R-2, 4xMIC): 1.2 h
Time to kill 99.9% (A. baumannii isolates [1]; MPM-R-3, 1xMIC): 1.4 h
Time to kill 99.9% (A. baumannii isolates [1]; MPM-R-3, 4xMIC): 1.2 h
Time to kill 99.9% (A. baumannii isolates [1]; Sus-1, 1xMIC): 1.7 h
Time to kill 99.9% (A. baumannii isolates [1]; Sus-1, 4xMIC): 1.2 h
Time to kill 99.9% (A. baumannii isolates [1]; Sus-2, 4xMIC): 1.2 h
Time to kill 99.9% (A. baumannii isolates [1]; Sus-3, 1xMIC): 1.3 h
Time to kill 99.9% (A. baumannii isolates [1]; Sus-3, 4xMIC): 1.3 h
effect in time-kill studies when tested alone (A. baumannii isolates [1]; alone at 1× or 4×MIC): generally bactericidal
MIC (A. baumannii isolates [2]; A. baumannii 441142, colistin-resistant, read-out: MIC): > 1020 µg/mL
MIC (A. baumannii isolates [2]; A. baumannii 441160, colistin-resistant, read-out: MIC): > 1020 µg/mL
MIC (A. baumannii isolates [2]; A. baumannii 463996, colistin-resistant, read-out: MIC): 8 µg/mL
MIC (A. baumannii isolates [2]; A. baumannii 466936, colistin-resistant, read-out: MIC): 64 µg/mL
MIC (A. baumannii isolates [2]; A. baumannii 517303, colistin-resistant): 128 µg/mL
MIC (A. baumannii isolates [2]; A. baumannii 618649, meropenem-resistant, read-out: MIC): 4 µg/mL
MIC (A. baumannii isolates [2]; A. baumannii 625917, meropenem-resistant, read-out: MIC): 4 µg/mL
MIC (A. baumannii isolates [2]; A. baumannii 628760, susceptible, read-out: MIC): 8 µg/mL
MIC (A. baumannii isolates [2]; A. baumannii 637723, amikacin-resistant, read-out: MIC): 256 µg/mL
MIC (A. baumannii isolates [2]; A. baumannii 638115, amikacin-resistant, read-out: MIC): 1020 µg/mL
MIC (A. baumannii isolates [2]; A. baumannii 650216, meropenem-resistant, read-out: MIC): 4 µg/mL
MIC (A. baumannii isolates [2]; A. baumannii 655932, amikacin-resistant, read-out: MIC): 512 µg/mL
MIC (A. baumannii isolates [2]; A. baumannii 661954, amikacin-resistant, read-out: MIC): 512 µg/mL
MIC (A. baumannii isolates [2]; A. baumannii 667848, meropenem-resistant, read-out: MIC): 4 µg/mL
MIC (A. baumannii isolates [2]; A. baumannii 668116, susceptible, read-out: MIC): 2 µg/mL
MIC (A. baumannii isolates [2]; A. baumannii 668239, amikacin-resistant, read-out: MIC): > 1020 µg/mL
MIC (A. baumannii isolates [2]; A. baumannii 670348, susceptible, read-out: MIC): 8 µg/mL
MIC (A. baumannii isolates [2]; A. baumannii 671050, meropenem-resistant, read-out: MIC): 8 µg/mL
MIC (A. baumannii isolates [2]; A. baumannii 672190, susceptible, read-out: MIC): 4 µg/mL
MIC (A. baumannii isolates [2]; A. baumannii 674340, susceptible, read-out: MIC): 4 µg/mL

Reference: patent US20150065416A1, “NOVEL DRUG COMBINATION” (FAB PHARMA SAS, priority 2013, published 2015)
